What was measured:
Format in all cases: in vivo
[1] = Body weight, rats with gastric injury without inflammation; details: 1.11 mmol/kg force-fed, one day after, FIG. 17
Description: (§1) The medicinal activity of the compound according to the invention and the pharmaceutical composition according to the invention was tested in a series of experiments performed on rats. The experiments were performed on male Sprague-Dawley rats (280-320 g) housed in plastic cages in a thermoneutral environment (21° C.±2° C.) with a 12 h dark-light cycle. The animals, fed on a normal diet with tap water ad libitum, were randomly allocated into experimental groups according to the feeding protocols.
(§2) Further experiments regarding the effect of a compound of formula (I) and a pharmaceutical composition comprising a compound of formula (I), respectively, on gastric injury without inflammation were conducted on rats. 15 animals were randomly allocated into three groups. Group H (n=5) served as sham-operated controls. Samples of all animals were drawn on day 1 of the clinical tests. On day 2 the animals of group I (n=5) were force-fed acetylsalicylic acid (ASS) (1.11 mmol/kg body weight). […] Fluorescence confocal endomicroscopy was performed to examine the microvasculature and morphologic changes of the mucosa of the distal colon, and full-thickness tissue samples and venous blood samples were taken to determine the biochemical changes in the colon and plasma. The effects were determined by way of measurement of body weight, blood gas analysation and biopsy. […]

[2] = Haematocrit in blood, rats with gastric injury without inflammation; details: 1.11 mmol/kg; for percentage of haematocrit in the blood / haematocrit level, low haematocrit data group (severe bleeding with plasma and cell loss): vs control group H; for percentage of haematocrit in the blood: FIG. 18; for haematocrit level, low haematocrit data group (severe bleeding with plasma and cell loss): FIG. 20; for haematocrit level, high haematocrit data group (bleeding with plasma loss): vs sham group H, FIG. 19
Description: as §1
(§3) Further experiments regarding the effect of a compound of formula (I) and a pharmaceutical composition comprising a compound of formula (I), respectively, on gastric injury without inflammation were conducted on rats. 15 animals were randomly allocated into three groups. Group H (n=5) served as sham-operated controls. Samples of all animals were drawn on day 1 of the clinical tests. On day 2 the animals of group I (n=5) were force-fed acetylsalicylic acid (ASS) (1.11 mmol/kg body weight). Group K (n=5) was force-fed 1.11 mmol/kg body weight of the compound according to the invention. Group H only received the respective solvent (25% ethanol in water). One day after the gavage, additional samples were drawn. Fluorescence confocal endomicroscopy was performed to examine the microvasculature and morphologic changes of the mucosa of the distal colon, and full-thickness tissue samples and venous blood samples were taken to determine the biochemical changes in the colon and plasma. The effects were determined by way of measurement of body weight, blood gas analysation and biopsy. ASS was chosen as a comparative example due to its structural similarity and its known activity as anti-inflammatory agent.
On the basis of the haematocrit measurements, the data can be divided into two groups:
a) high haematocrit level, indicating bleeding with plasma loss (FIG. 19); and b) low haematocrit level, indicating severe bleeding with plasma and cell loss (FIG. 20).

TNF-α = assay: Plasma TNF-α level, rats with gastric injury without inflammation; details: one day after 1.11 mmol/kg, vs control group H, FIG. 21
Description: Plasma TNF-α concentrations were determined in duplicate by means of a commercially available enzyme-linked immunosorbent assay (Quantikine ultrasensitive enzyme-linked immunosorbent assay kit for rat TNF-α; Biomedica Hungaria Kft, Budapest, Hungary). The minimum detectable level was less than 5 pg/ml, and the inter-assay and intra-assay coefficients of variation were less than 10%.
as §2, with “weight). Group K (n=5) was force-fed 1.11 mmol/kg body weight of the compound according to the invention.” for “weight).”

myeloperoxidase (MPO) = assay: Tissue myeloperoxidase activity, rats with gastric injury without inflammation; details: gastric and colon tissue, one day after 1.11 mmol/kg, vs control group H, FIGS. 23a/23b
Description: Colon biopsies kept on ice were homogenized in phosphate buffer (pH 7.4) containing 50 mM Tris-HCl (Reanal, Budapest, Hungary), 0.1 mM EDTA, 0.5 mM dithiothreitol, 1 mM phenylmethylsulfonyl fluoride, 10 μg/ml soybean trypsin inhibitor, and 10 μg/ml leupeptin (Sigma Aldrich GmbH, Munich, Germany). The homogenate was centrifuged at 4° C. for 20 minutes at 24,000 g, and the supernatant was loaded into centrifugal tubes (Amicon Centricon-100; 100,000-molecular-weight cutoff ultrafilter, Millipore Corporation, Bedford, Mass.). The activity of myeloperoxidase (MPO) was measured on the pellet of the homogenate.
The activity of MPO as a marker of tissue leukocyte infiltration was measured on the pellet of the homogenate. Briefly, the pellet was resuspended in K3PO4 buffer (0.05 M; pH 6.0) containing 0.5% hexa-1,6-bis-decyltriethylammonium bromide. After three repeated freeze-thaw procedures, the material was centrifuged at 4° C. for 20 minutes at 24,000 g, and the supernatant was used for MPO determination. […] The reaction led to the hydrogen peroxide-dependent oxidation of tetramethylbenzidine, which could be detected spectrophotometrically at 450 nm (UV-1601 spetrophotometer; Shimadzu, Kyoto, Japan). Myeloperoxidase activities were measured at 37° C.; the reaction was stopped after 5 minutes by the addition of 0.2 ml of H2SO4 (2 M), and the resulting data were referred to the protein content. […]

xanthine oxidase enzyme = assay: Xanthine oxidase enzyme activity in tissue, rats with gastric injury without inflammation; details: gastric and colon tissue, 1.11 mmol/kg, vs control group H, FIGS. 24a/24b
Description: The XOR activity was determined in the ultrafiltered, concentrated supernatant by fluorometric kinetic assay based on the conversion of pterine to isoxanthopterine in the presence (total XOR) or absence (xanthine oxidase activity) of the electron acceptor methylene blue.
as §3, with “ASS was chosen as a comparative example due to its structural similarity and its known activity as anti-inflammatory agent.” left out

nitrite/nitrate (NOx) = assay: Nitrite/nitrate level in blood, rats with TNBS-induced colitis; details: 1.11 mmol/kg, vs groups L and M, FIG. 34
Description: Colonic inflammation was induced by intracolonic administration of TNBS (2,4,6-trinitrobenzenesulfonic acid) (40 mg/kg in 0.25 ml of 25% aqueous ethanol) through an 8-cm-long soft plastic catheter under transient diethylether anesthesia. In the sham-operated groups, only the vehicle for TNBS was administered. The animals were deprived of food, but not water, for 12 h before the enemas.
The levels of plasma nitrite/nitrate (NOx), stable end products of NO were measured by the Griess reaction. This assay depends on the reduction of nitrate to nitrite, which is then converted into a colored azo dye compound that is detected spectrophotometrically at 540 nm.
The above-described clinical studies were repeated with animals having colitis which was induced as described above. […] Two days after the enema the effects of the treatment were determined by measurement of body weight, blood gas analysis and biopsy. […] Surgery was performed to allow registration of the hemodynamic parameters at 1 h intervals for 6 h (cardiac output [CO] data were measured only at the end of the experiments). […] In addition, fluorescence confocal endomicroscopy was performed to examine the microvasculature and morphologic changes of the mucosa of the distal colon, and full-thickness tissue samples and venous blood samples were taken to determine the biochemical changes in the colon and plasma.

| SMILES | change in body weight [1] | percentage of haematocrit in the blood [2] | haematocrit level, low haematocrit data group (severe bleeding with plasma and cell loss) [2] | haematocrit level, high haematocrit data group (bleeding with plasma loss) [2] | plasma TNF-α level (TNF-α) | myeloperoxidase (MPO) activity (myeloperoxidase (MPO)) | activity of xanthine oxidase enzyme (xanthine oxidase enzyme) | nitrite/nitrate level in the blood (nitrite/nitrate (NOx)) |
| --- | --- | --- | --- | --- | --- | --- | --- | --- |
| CC(=O)Oc1ccccc1C(=O)O [ASS, acetylsalicylic acid, reference compound] | severe loss of body weight | severe change in the haematocrit level | severe drop | increase of the haematocrit level | increase in the plasma TNF-α level | increased | increased activity | increased nitrite/nitrate level |
| CC(=O)Oc1ccccc1C(=O)NC(CO)(CO)CO [compound according to the invention] | only showed a minor loss in body weight | No change in the haematocrit level | no changes could be detected | no change in the haematocrit level | almost no change | does not further enhance the inflammatory processes | no such increase | nitrite/nitrate levels comparable to those of healthy animals |

Reference: US20160326098A1, “Pharmaceutically Active Compound for Use as Anti-inflammatory Agent” (Pax Forschung GmbH, priority 2013, published 2016)
